Experimental data: publication PMC12136037, “Type II kinase inhibitors that target Parkinson’s disease–associated LRRK2” (Science Advances, 2025)

Experiments:
Assay in all cases: DSF 100 kinase selectivity screen;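 also: compound tested at 20 µM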
Type in all cases: binding
[1] = target: T1, ~100 representative kinases (Homo sapiens, UniProt O94768); conditions: Protein STK17B; DSF; average of three replicates
T1 construct: Recombinant protein kinase domains with a concentration of 2 μM
T1 sequence (O94768 1-372): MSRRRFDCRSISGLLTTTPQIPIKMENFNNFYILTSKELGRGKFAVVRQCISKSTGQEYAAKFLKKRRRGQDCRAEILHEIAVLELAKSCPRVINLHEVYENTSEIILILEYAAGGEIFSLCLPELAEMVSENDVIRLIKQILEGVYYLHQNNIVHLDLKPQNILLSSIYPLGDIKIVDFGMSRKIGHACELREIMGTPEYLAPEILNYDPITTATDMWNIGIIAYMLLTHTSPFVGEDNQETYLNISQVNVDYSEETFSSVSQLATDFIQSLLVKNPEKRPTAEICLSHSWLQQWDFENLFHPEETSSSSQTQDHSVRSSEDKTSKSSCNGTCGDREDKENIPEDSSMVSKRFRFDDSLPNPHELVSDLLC
How it was run: (§1)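 Each kinase domain, at 2 μM, is mixed with 20 μM test compound and SYPRO Orange in Hepes (20 mM, pH 7.5) with 500 mM NaCl. Temperature is then raised at 3°C/min and fluorescence-monitored unfolding yields the melting temperature change, ΔTm in degrees Celsius.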

[2] = target: T2, ~100 representative kinases (Homo sapiens, UniProt O94804); conditions: Protein STK10; DSF; average of three replicates
T2 construct: Recombinant protein kinase domains with a concentration of 2 μM
How it was run: as §1

[3] = target: T3, ~100 representative kinases (Homo sapiens, UniProt O96013); conditions: protein PAK4; average of three replicates
T3 construct: Recombinant protein kinase domains with a concentration of 2 μM
How it was run: as §1

[4] = target: T4, ~100 representative kinases (Homo sapiens, UniProt P11362); conditions: protein FGFR1; average of three replicates
T4 construct: Recombinant protein kinase domains with a concentration of 2 μM
How it was run: as §1

[5] = target: T5, ~100 representative kinases (Homo sapiens, UniProt P15056); conditions: Protein BRAF; average of three replicates
T5 construct: Recombinant protein kinase domains with a concentration of 2 μM
How it was run: as §1

[6] = target: T6, ~100 representative kinases (Homo sapiens, UniProt P34947); conditions: protein GPRK5; average of three replicates
T6 construct: Recombinant protein kinase domains with a concentration of 2 μM
How it was run: as §1

[7] = target: T7, ~100 representative kinases (Homo sapiens, UniProt Q12866); conditions: protein MERTK; average of three replicates
T7 construct: Recombinant protein kinase domains with a concentration of 2 μM
T7 sequence (Q12866 21-999): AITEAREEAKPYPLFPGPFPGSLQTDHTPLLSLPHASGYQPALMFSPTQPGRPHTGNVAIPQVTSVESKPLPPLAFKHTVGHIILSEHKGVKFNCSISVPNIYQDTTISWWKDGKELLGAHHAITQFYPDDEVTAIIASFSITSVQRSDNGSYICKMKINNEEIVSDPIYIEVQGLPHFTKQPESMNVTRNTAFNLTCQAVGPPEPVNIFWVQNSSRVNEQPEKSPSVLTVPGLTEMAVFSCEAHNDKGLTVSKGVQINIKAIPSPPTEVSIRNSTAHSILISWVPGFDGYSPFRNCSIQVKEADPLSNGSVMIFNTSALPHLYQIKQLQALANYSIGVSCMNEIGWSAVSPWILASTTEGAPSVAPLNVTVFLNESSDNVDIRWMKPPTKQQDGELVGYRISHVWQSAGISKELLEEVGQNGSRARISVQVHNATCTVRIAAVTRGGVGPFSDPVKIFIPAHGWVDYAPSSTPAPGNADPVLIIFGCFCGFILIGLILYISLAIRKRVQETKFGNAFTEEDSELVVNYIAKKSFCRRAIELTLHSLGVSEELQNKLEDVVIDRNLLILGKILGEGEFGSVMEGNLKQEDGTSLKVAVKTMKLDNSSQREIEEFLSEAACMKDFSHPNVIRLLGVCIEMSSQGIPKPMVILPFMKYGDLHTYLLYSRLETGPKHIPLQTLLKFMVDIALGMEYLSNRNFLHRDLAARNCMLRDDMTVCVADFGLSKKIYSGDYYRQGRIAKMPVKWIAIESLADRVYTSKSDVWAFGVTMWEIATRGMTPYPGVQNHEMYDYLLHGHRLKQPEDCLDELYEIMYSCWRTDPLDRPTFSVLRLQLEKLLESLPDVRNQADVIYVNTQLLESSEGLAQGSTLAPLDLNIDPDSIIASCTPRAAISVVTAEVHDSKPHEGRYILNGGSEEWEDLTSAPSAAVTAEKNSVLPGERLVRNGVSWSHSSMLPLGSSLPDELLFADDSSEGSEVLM
How it was run: as §1

[8] = target: T8, ~100 representative kinases (Homo sapiens, UniProt Q13554); conditions: Protein CAMK2B; average of three replicates
T8 construct: Recombinant protein kinase domains with a concentration of 2 μM
How it was run: as §1

[9] = target: T9, ~100 representative kinases (Homo sapiens, UniProt Q8TDX7); conditions: protein NEK7; average of three replicates
T9 construct: Recombinant protein kinase domains with a concentration of 2 μM
How it was run: as §1

[10] = target: T10, ~100 representative kinases (Homo sapiens, UniProt Q9UEE5); conditions: Protein STK17A; DSF; average of three replicates
T10 construct: Recombinant protein kinase domains with a concentration of 2 μM
T10 sequence (Q9UEE5 1-414): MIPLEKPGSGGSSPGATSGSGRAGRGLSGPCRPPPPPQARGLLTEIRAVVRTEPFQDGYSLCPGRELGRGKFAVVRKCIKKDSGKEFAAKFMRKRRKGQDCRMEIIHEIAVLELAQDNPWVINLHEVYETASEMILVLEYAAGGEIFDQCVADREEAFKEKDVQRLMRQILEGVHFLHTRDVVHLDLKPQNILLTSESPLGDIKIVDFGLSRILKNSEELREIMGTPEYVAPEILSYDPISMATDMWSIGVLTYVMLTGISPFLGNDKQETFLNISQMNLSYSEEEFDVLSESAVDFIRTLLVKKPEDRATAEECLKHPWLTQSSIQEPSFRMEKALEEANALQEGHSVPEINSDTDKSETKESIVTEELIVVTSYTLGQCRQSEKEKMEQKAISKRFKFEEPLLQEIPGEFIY
How it was run: as §1

[11] = target: T11, ~100 representative kinases (Homo sapiens, UniProt Q9Y243); conditions: Protein AKT3; average of three replicates
T11 construct: Recombinant protein kinase domains with a concentration of 2 μM
How it was run: as §1

T8 sequence (Q13554 whole entry, the tested form may be a part): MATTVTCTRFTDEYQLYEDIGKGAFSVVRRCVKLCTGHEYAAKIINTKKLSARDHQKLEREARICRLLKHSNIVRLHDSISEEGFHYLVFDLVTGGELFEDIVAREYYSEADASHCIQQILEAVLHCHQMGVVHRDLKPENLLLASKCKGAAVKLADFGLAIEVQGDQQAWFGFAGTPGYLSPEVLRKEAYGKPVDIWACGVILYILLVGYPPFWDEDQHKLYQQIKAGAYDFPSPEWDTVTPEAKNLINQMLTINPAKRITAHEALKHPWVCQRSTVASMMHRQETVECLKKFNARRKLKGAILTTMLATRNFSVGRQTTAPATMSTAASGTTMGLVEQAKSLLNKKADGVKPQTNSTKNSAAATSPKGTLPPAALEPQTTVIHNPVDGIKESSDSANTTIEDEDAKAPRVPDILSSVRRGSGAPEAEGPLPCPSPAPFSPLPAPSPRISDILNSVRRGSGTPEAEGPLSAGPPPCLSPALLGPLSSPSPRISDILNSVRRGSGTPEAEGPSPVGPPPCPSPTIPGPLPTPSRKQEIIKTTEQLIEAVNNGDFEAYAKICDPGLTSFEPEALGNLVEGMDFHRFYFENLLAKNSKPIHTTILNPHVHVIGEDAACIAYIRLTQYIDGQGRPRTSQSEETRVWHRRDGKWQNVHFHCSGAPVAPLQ
T9 sequence (Q8TDX7 whole entry, the tested form may be a part): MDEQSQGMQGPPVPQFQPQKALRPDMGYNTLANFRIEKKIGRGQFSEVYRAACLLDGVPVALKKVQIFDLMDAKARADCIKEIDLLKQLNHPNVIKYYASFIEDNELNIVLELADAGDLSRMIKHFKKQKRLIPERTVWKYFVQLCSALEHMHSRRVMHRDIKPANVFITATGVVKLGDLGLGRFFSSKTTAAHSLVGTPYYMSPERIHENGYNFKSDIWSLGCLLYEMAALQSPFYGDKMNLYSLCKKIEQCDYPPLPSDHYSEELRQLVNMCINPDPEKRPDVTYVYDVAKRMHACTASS
T4 sequence (P11362 22-822): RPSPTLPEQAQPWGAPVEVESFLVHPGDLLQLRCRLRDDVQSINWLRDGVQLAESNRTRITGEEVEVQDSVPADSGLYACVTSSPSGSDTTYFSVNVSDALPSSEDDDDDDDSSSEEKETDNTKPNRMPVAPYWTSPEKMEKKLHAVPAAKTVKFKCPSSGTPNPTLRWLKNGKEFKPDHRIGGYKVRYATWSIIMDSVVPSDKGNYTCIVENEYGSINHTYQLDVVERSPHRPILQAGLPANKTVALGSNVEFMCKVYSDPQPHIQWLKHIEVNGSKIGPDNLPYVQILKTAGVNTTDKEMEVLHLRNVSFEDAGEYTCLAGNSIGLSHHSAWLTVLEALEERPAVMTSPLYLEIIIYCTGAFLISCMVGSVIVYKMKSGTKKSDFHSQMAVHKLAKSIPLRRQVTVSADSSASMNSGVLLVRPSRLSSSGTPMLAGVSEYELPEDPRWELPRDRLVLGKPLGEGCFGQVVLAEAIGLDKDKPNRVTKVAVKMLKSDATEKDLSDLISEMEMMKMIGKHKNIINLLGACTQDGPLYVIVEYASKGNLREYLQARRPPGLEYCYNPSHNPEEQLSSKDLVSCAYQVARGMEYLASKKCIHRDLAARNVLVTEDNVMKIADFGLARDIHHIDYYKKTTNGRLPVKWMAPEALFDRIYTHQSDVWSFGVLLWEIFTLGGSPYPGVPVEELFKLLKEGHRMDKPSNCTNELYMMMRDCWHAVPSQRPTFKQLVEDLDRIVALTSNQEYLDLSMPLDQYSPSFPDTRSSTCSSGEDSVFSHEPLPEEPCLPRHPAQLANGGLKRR
T11 sequence (Q9Y243 whole entry, the tested form may be a part): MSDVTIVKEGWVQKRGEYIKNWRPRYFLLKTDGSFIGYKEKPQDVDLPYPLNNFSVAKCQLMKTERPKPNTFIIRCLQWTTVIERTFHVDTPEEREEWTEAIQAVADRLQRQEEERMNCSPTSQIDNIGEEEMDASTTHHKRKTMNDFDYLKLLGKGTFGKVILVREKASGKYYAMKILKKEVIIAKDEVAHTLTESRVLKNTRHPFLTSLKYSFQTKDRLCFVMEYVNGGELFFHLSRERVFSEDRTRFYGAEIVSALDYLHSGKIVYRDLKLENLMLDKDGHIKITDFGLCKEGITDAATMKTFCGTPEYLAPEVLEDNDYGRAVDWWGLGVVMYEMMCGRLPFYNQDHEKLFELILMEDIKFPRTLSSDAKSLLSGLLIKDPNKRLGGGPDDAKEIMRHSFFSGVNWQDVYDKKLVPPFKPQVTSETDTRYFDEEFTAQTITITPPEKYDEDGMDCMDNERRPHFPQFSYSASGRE
T3 sequence (O96013 whole entry, the tested form may be a part): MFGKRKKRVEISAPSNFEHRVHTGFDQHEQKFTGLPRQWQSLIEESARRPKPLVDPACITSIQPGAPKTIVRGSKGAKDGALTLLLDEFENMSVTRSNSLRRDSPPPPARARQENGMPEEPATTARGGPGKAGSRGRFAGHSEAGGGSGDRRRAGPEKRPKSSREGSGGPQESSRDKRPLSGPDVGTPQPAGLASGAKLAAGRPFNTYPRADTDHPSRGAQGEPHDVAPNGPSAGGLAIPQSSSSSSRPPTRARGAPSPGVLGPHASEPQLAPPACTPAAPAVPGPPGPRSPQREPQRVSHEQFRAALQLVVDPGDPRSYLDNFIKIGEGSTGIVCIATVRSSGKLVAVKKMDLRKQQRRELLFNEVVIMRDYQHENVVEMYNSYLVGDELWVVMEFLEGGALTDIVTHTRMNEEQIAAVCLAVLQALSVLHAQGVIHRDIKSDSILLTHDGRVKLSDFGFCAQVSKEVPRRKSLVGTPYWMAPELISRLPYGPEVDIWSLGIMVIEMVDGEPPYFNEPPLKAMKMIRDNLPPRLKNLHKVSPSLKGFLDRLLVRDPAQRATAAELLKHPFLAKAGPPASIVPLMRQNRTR
T6 sequence (P34947 whole entry, the tested form may be a part): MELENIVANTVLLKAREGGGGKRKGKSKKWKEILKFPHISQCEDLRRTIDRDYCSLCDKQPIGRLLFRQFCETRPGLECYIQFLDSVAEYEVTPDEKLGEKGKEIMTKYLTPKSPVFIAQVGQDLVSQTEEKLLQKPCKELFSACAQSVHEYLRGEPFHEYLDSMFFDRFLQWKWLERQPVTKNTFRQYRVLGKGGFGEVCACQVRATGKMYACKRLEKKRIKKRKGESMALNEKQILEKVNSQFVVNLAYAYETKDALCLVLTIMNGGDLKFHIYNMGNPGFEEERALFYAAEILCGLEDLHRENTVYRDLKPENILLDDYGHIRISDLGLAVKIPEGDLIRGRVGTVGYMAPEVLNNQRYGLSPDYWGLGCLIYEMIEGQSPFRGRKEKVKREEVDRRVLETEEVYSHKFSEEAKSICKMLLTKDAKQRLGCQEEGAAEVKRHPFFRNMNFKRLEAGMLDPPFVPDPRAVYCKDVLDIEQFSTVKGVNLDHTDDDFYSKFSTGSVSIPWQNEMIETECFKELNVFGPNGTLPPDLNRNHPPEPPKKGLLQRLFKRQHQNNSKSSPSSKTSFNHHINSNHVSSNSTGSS
T2 sequence (O94804 whole entry, the tested form may be a part): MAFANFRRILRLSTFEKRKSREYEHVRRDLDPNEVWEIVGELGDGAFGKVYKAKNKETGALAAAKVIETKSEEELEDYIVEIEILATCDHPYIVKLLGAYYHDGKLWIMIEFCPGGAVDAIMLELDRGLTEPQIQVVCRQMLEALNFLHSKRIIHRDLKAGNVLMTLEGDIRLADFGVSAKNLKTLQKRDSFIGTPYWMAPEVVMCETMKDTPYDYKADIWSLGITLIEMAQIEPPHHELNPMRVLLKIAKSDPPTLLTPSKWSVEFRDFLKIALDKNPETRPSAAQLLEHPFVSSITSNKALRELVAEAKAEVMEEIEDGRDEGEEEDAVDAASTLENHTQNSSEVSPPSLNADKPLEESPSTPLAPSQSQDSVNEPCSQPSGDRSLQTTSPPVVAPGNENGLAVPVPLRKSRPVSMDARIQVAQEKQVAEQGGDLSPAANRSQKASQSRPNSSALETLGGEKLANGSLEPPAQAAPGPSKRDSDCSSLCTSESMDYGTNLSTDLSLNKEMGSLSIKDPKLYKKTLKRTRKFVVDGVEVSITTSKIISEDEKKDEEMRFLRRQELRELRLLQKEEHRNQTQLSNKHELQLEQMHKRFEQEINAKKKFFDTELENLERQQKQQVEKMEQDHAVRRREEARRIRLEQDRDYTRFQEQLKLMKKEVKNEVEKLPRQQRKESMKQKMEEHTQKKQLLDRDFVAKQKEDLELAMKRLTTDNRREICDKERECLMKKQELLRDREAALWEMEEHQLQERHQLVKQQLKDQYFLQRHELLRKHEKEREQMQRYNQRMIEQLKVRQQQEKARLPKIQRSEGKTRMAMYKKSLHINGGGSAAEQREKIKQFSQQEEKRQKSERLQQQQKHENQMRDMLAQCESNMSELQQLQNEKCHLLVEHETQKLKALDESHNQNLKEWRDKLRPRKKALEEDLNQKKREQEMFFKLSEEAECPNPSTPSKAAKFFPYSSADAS

| SMILES | dTm [1] [K] | dTm [2] [K] | dTm [3] [K] | dTm [4] [K] | dTm [5] [K] | dTm [6] [K] | dTm [7] [K] | dTm [8] [K] | dTm [9] [K] | dTm [10] [K] | dTm [11] [K] |
| --- | --- | --- | --- | --- | --- | --- | --- | --- | --- | --- | --- |
| Cc1ccc(-n2nc(C(C)(C)C)cc2NC(=O)Nc2cccc(-c3c[nH]c4ncnc(N5CCOCC5)c34)c2)cc1 [Compound 29] | 6.55 | 20.37 | 1.80 | 5.95 | 37.18 | 0.00 | 2.79 | -0.15 | -0.81 | 3.34 | 0.14 |
| O=C(Nc1cccc(-c2c[nH]c3ncnc(N4CCOCC4)c23)c1)C1(C(=O)Nc2ccc(F)c(Br)c2)CC1 [Compound 19] | 0.00 | 16.12 | 1.11 | 1.26 | 13.24 | 0.28 | 2.86 | 2.00 | -1.14 | 2.37 | -0.15 |
| O=C(Nc1cccc(-c2c[nH]c3ncnc(N4CCOCC4)c23)c1)C1(C(=O)Nc2ccc(F)c(Cl)c2)CC1 [Compound 18] | 9.48 | 15.34 | 0.49 | 2.20 | 10.73 | 0.43 | 1.59 | 2.15 | 1.61 | 2.92 | 1.04 |
| COc1cc(S(C)(=O)=O)ccc1Nc1nc(N(C)C)c2c(Cl)c[nH]c2n1 [Compound 37] | 9.71 | -1.61 | 0.22 | 0.09 | 0.14 | 1.16 | -0.61 | -0.66 | -0.25 | -0.19 | -0.25 |
| O=C(Nc1cccc(-c2c[nH]c3ncnc(N4CCOCC4)c23)c1)C1(C(=O)Nc2cc(Br)c(F)cc2F)CC1 [Compound 25] | 0.00 | 11.10 | 0.88 | 0.52 | 11.56 | 0.32 | 1.84 | 1.90 | 0.26 | -0.61 | -0.48 |
| Cn1cc(-c2c[nH]c3ncnc(N4CCOCC4)c23)cc1C#N [PFE-360] | -2.21 | 7.58 | 4.09 | 0.13 | 2.10 | 0.56 | 0.31 | 0.00751 | -0.13 | 0.43 | -0.26 |
| O=C(Nc1cccc(-c2c[nH]c3ncnc(N4CCOCC4)c23)c1)c1cccn(-c2ccc(F)cc2)c1=O [Compound 4] | 6.49 | 11.47 | -0.78 | 3.37 | 8.03 | 0.55 | 5.74 | 0.73 | -0.10 | -0.07 | -0.17 |
| Cc1ccc(C(=O)Nc2ccc(CN3CCN(C)CC3)c(C(F)(F)F)c2)cc1C#Cc1c[nH]c2ncnc(N3CCOCC3)c12 [Compound 1] | 0.19 | 14.26 | 0.31 | 2.59 | 35.22 | 0.19 | 3.23 | 0.49 | 1.05 | 2.74 | -0.0373 |
| O=C(Nc1ccc(F)cc1)C1(C(=O)Nc2cccc(-c3c[nH]c4ncnc(N5CCOCC5)c34)c2)CC1 [Compound 2] | 6.81 | 12.98 | 0.12 | 1.19 | 9.50 | -0.82 | 2.38 | 0.69 | -0.93 | 0.36 | 0.65 |
| Cc1cc(NC(=O)C2(C(=O)Nc3ccc(F)cc3)CC2)cc(-c2c[nH]c3ncnc(N4CCOCC4)c23)c1 [Compound 6] | 0.00 | 11.03 | 0.99 | 0.32 | 12.36 | 0.0071 | 1.86 | 1.87 | 0.23 | 0.40 | -0.13 |
| O=C(Nc1cccc(-c2c[nH]c3ncnc(N4CCOCC4)c23)c1)C1(C(=O)Nc2ccc(F)c(Br)c2F)CC1 [Compound 26] | 0.00 | 12.57 | 0.78 | 0.99 | 9.02 | 0.25 | 1.09 | 1.60 | -0.33 | -0.52 | -0.00683 |
| Cc1cc(F)ccc1NC(=O)C1(C(=O)Nc2cccc(-c3c[nH]c4ncnc(N5CCOCC5)c34)c2)CC1 [Compound 24] | 2.37 | 8.23 | -0.47 | 0.81 | 8.44 | 0.16 | 0.66 | 0.23 | 0.20 | -0.51 | 0.50 |
| CCSc1nc(NC)c2c(-c3cccc(NC(=O)Nc4cc(C(C)(C)C)nn4-c4ccc(C)cc4)c3)c[nH]c2n1 [Compound 32] | 6.20 | 8.61 | 0.61 | 0.60 | 0.90 | -0.61 | 0.0365 | 0.33 | -0.18 | -0.0646 | 0.30 |
